Data as given in patent US20180360710A1, “Sodium Zinc Alginate Structurant And Methods For Making And Using the Same” (Colgate-Palmolive Company, priority 2015, published 2018).

| Compound | Solubility (g/100 g H2O, 25° C.) (25° C.) [g/100 g H2O] | Calculated Soluble Zinc (at use level in formula) [%] | Total Zinc Conc. (at use level in formula) [%] |
| --- | --- | --- | --- |
| [Cl-].[Cl-].[Zn+2] [ZnCl2, zinc chloride] | 408 | 0.72 | 0.72 |
| [O]=[Zn] [ZnO, zinc oxide] |  |  | 0.80 |
